melting point [°C] | SMILES
148 to 150 | CC(=O)OC1CC2C3CCC(C(C)CCCC(C)C)C3(C)CCC2C2(C)CC(F)C(O)CC12 (stereo not drawn)
125 to 126 | COC(=O)CNC(=O)c1ccc(C(=O)NS(=O)(=O)c2ccccc2)cn1
254 to 255 | CC(=O)c1ccc2c(c1)c1cc(-c3ccc(Cl)cc3Cl)c(=O)n(C)c1n2C
78 to 81 | NS(=O)(=O)OCCCN1CCC(C(O)(c2ccc(F)cc2)c2ccc(F)cc2)CC1
125 to 127 | Cn1c2ccccc2c2cc(C(=O)N3CCOCC3)sc21
94 to 97 | C=CC1OC(=O)c2c(Oc3nc(OC)cc(OC)n3)cccc21 (stereo not drawn)
147 to 149 | CC(C)c1cccc(C(C)C)c1NC(=O)NCCN1CCN(CCSc2nc3ccccc3s2)CC1
117 to 118 | O=C(c1ccc2nonc2c1)N1CC=CC1
74 to 76 | CCOC(OCC)C(=O)OCc1c(-c2cnccn2)ssc1=O
197 to 200 | O=[N+]([O-])c1ccc(OCCc2c[nH]cn2)cc1
78 to 81 | CCOC(=O)CN(CCc1ccccc1)C(=O)CCc1nc2c(F)c(F)cc(F)c2s1
> 230 | CSc1nn2c(N3CCN(c4ccccc4)CC3)cc(C)nc2c1S(=O)(=O)c1ccccc1
60 | COC(=O)Cc1ccc(OCCNC(=O)C2Cc3ccccc3N2S(=O)(=O)c2ccc(-c3cccc(C(F)(F)F)c3)c(Cl)c2)cc1 (stereo not drawn)
118 to 119 | C[Si](C)(C)CCCCCCCNC(=O)n1cc(F)c(=O)[nH]c1=O
123 to 125 | COc1ccc2c3c(c(=O)oc2c1)CN(CC(C)=O)CC3
161 to 163 | COc1nc2cc(Cl)c(Cl)c(CS(C)(=O)=O)c2nc1OC
139 to 141 | CC(=O)Nc1ccc(C(C)=C(Cl)Cl)cc1[N+](=O)[O-]
168 to 169 | COc1ccccc1N1CCc2c(C)nc3c(OC)cccc3c21
169 to 171 | CCOC(=O)C1=C(C)N(C(C)=O)C(c2csc(C)n2)=NC1c1ccc(Cl)cc1 (stereo not drawn)
175 | COC(=O)CCC#Cc1cc(Cl)ccc1NS(=O)(=O)c1ccc2nc(N)sc2c1
57 to 59 | CCOC(=O)CCCCCCCCCCSc1nc(-c2ccccc2)c(-c2ccccc2)[nH]1
180 to 181 | CC(C)(C)c1cc(O)c(N)c([N+](=O)[O-])c1
218 | Cc1cccc(-c2nc3ccc(O)cc3n2Cc2ccccc2Br)c1
68 to 72 | CC(C)(C)OC(=O)n1cc(I)c2ccncc21

melting point [°C] | SMILES
189 to 190 | Brc1nsc2nc3ccccc3n12
59 to 61 | C[C@H](NC(=O)c1cccnc1Oc1ccc(F)cc1)c1cccs1
245 to 255 | CC(=O)N1CCc2cc([N+](=O)[O-])cc(C#N)c21
89 to 91 | CCC(=O)c1cc(F)c(OCC2CC2(Cl)Cl)cc1F (stereo not drawn)
> 250 | Clc1cccnc1-c1cc(OCCc2ccccn2)c2[nH]nc(Br)c2c1
40 to 41 | Nc1cc(Cl)c(OCC(F)(F)F)cc1F
100 to 101 | CN1CCN(c2cccc3ccc(-c4cccc(NS(C)(=O)=O)c4)cc23)CC1
188 | O=C(O)COc1cc2cc(CO)sc2c(Cl)c1Cl
174 to 176 | CC1(C)CC(c2ccc[nH]c2=O)c2cc(C#N)ccc2O1 (stereo not drawn)
> 260 | Cn1cncc1C(O)(c1ccc(C(=O)O)cc1)c1ccc2c(c1)c(-c1cccc(Cl)c1)cc(=O)n2C (stereo not drawn)
94 to 98 | Cc1cn([C@@H]2C[C@H](C(=O)OC(c3ccccc3)c3ccccc3)N(CCNC(=O)OCC3c4ccccc4-c4ccccc43)C2)c(=O)n(C(=O)c2ccccc2)c1=O
125 to 136 | CCCn1c(=O)c2c(nc(/C=C/c3ccc(Cl)c(Cl)c3)n2C)n(CCC)c1=O
80 to 82 | OCc1nccc(N2CCOCC2)c1Cl
205 to 206 | COc1ccc(S(=O)(=O)N(C)c2cccc(-c3ccnc4c([N+](=O)[O-])cnn34)c2)cc1
120 to 122 | COCC1CN(c2ccc(C3CCC(CCNC(C)=O)CC3)cc2)C(=O)O1 (racemic)
180 to 185 | CNc1ncnc(N)c1N
78 to 83 | Cc1cc(C2(C(F)(F)F)ON=C(c3ccc(F)cc3)O2)ccc1N (stereo not drawn)
176 to 179 | COc1cccc2c1CN(Cc1c[nH]c3ccccc13)C2
185 to 188 | CC(=O)Nc1nc(C#N)cs1
240 to 242 | Cc1[nH]c2ccc([N+](=O)[O-])cc2c1Cn1ccnc1
130 to 131 | CC(=O)Oc1cc2cc[nH]c2cc1OC(C)=O
132 to 134 | CN1CCC2(CC1)C(=O)N(C)C(=O)N2c1ccccc1
108 to 111 | C=C(C)C(=O)N1c2ccc(OC)cc2CC1C(=O)O (stereo not drawn)
> 210 | Oc1ccnc2[nH]cc(-c3ccncn3)c12

melting point [°C] | SMILES
184 to 186 | O=C(O)c1cccc(-c2ccc(CNC(=O)c3cccnc3Oc3ccc(F)cc3)cc2)c1
93 to 96 | CCNC(=O)c1c(Br)csc1[Si](C)(C)C
203 to 204 | Cc1cc(C(=O)N2Cc3ccccc3Cc3ccccc32)ccc1N
182 to 184 | CN1CCN(c2nccc(Oc3ccc(NC(=O)c4cc(F)cc(N5CCCCC5)c4)c4ccccc34)n2)CC1
203 to 204 | COc1ccc2nc(NC(=O)COC(=O)c3ccccc3)sc2c1
160 to 164 | O=C1C(c2cccc(C(F)(F)F)c2)=C(NC2CC2)OC1c1ccccc1 (stereo not drawn)
191 to 194 | CCOC(=O)C1=C(C)NC(C)=C(C(=O)OCC)C1c1csc2cc([N+](=O)[O-])ccc12
75.6 to 76.4 | CCC(C)Sc1cc(C(F)(F)F)ccc1C(=O)c1cnoc1C1CC1 (stereo not drawn)
197 to 199 | CCOC(=O)c1cnc2c(NC(=O)c3c(Cl)cccc3Cl)cccc2c1S
211 to 213 | O=C1c2ccccc2C(=O)N1C1CCCn2c1nc(-c1ccncc1)cc2=O (racemic)
200 to 201 | Cc1c(C(=O)O)ccc(O)c1O
93 to 96 | COc1cc(F)c(C(=O)CCl)c(OC)c1
63 | O=C(O)C(=O)c1ccsc1
153 to 155 | CSC(C(=O)N(C)C)c1cccc(C(=O)c2ccccc2)c1N (stereo not drawn)
126 to 128 | COC1=CC(=O)OC1C(O)c1ccccc1C(F)(F)F (stereo not drawn)
232 to 234 | COCC(=O)NCc1cccc2c1CN(C1CCC(=O)NC1=O)C2=O (stereo not drawn)
254 to 256 | COc1ccc(-c2ccc(N3CCCN(c4ccc(-c5ccc(OC)cc5)cn4)CC3)nc2)cc1
135 to 136 | CC(=O)C1CCC2C3CC=C4C=CCCC4(C)C3CCC12C (stereo not drawn)
85.5 to 86 | CCCCCCCCCCCCCCCCOc1cc(NS(=O)(=O)c2cc([N+](=O)[O-])ccc2OCCOC)c(O)cc1C
169 to 174 | COc1cncnc1N1CCN(CCCc2c[nH]c3ccc(CNC(C)=O)cc23)CC1
62 to 64.5 | O=C(O)CCc1ccc(CC(=O)OCc2ccccc2)cc1
140 to 141 | C=C(C)CNC(=NC#N)Nc1cccnc1
244 to 246 | Cc1ccc(S(=O)(=O)N2c3ccccc3C(c3ccccc3)(c3ccccc3)C2NC(=O)Nc2ccc(F)cc2F)cc1 (stereo not drawn)
192 to 193 | O=S(=O)(c1nc(-c2ccc(F)cc2)c(-c2cccs2)[nH]1)C(F)(F)C(F)F

melting point [°C] | SMILES
127 to 128 | CN1CCN(c2cccc3c2CC[C@@H](NC(=O)c2ccc(N4CCOCC4)cc2)C3)CC1
121 to 123 | CSc1nnc(-c2ccc(Cl)cc2)o1
151 to 153 | CC1(Cn2nc(Cc3ccc(Cl)cc3)oc2=O)Cn2cc([N+](=O)[O-])nc2O1 (stereo not drawn)
210 to 214 | O=C(O)CCC(Cc1ccccc1Br)(C(=O)C=Cc1ccc(Cl)cc1)c1ccccc1 (stereo not drawn)
208 to 210 | COC(=O)CCCCCCCCOC1OC(CO)C(O)C(OC2OC(CO)C(O)C(O)C2O)C1NC(C)=O (stereo not drawn)
78 to 79 | CCC(CC)c1nn(-c2ccc(C(F)(F)F)cn2)cc1CCCOc1c(CC(=O)O)ccnc1C
259 | O=C(Nc1cccc(S(=O)(=O)NCC(F)(F)F)c1)c1cnn2c(C(F)(F)F)cc(-c3ccc(C(F)(F)F)cc3)nc12
59 | Cc1c(I)nc2n1CCc1ccccc1C2OC1CCN(C)CC1 (stereo not drawn)
157 to 159 | Cc1ccccc1OS(=O)(=O)c1cc(S(N)(=O)=O)c(Oc2ccccc2)cc1Cl
142 to 144 | CCCN(c1c2c(nc3ccccc13)CCCC2)n1cc(C)c2ccccc21
175 to 176 | COc1cccc(C=CC(=O)C2C(=O)OC(=O)C(C(C)=O)=C2O)c1OC (stereo not drawn)
204 to 205 | CC(C)=CC(=O)NCC1Cc2ccc(-c3ccc(=O)[nH]n3)cc2C1 (stereo not drawn)
68 to 70 | O=C(CCCOCCc1ccc2ccccc2c1)c1ccc(F)cc1
> 250 | Nc1ncnc2c1nc(COCP(=O)(O)O)n2CCC1CCCCC1
147 to 150 | CN(C=C(c1ccccc1)c1ccccc1)C(=O)c1sc2ccc(C(F)(F)F)cc2c1O
179 to 181 | CCCCC(CC)C(=O)Nc1ccc(-n2nc3ccc(C(F)(F)F)cc3n2)c(O)c1 (stereo not drawn)
116 to 118 | COC(=O)[C@H](Cc1ccc(OS(=O)(=O)C(F)(F)F)c(C2SCCS2)c1)NC(C)=O
248 | C/C(=N\O)c1cccc(NC(=O)NCC(=O)N(CC(=O)N2CCCC(C)(C)C2)c2ccccc2)c1
130 to 131 | C=CCc1cc2c(cc1O)CC(=O)N2CC
160 to 163 | CC(=O)c1ccc2ccn(S(=O)(=O)c3ccccc3)c2c1
130 to 131 | CC(C)Cn1c(C(=O)O)c(OCCCC(F)(F)F)c2cc(OCc3ccccc3)ccc2c1=O
267 | CC(=O)Nc1ccc2c(c1)C(c1cccn1-c1cc(Cl)cc(Cl)c1)C(=O)N2 (stereo not drawn)
119 to 120 | CCOc1cc(CCCC2OC(=O)NC2=O)ccc1OCc1coc(-c2ccccc2)n1 (stereo not drawn)

SMILES | melting point [°C]
C[C@](O)(COc1ccc(Cl)cc1)C(=O)Nc1ccc(C#N)c(C(F)(F)F)c1 | 146 to 148
Brc1cccc2nc(N3CCNCC3)ccc12 | 94 to 96
CC1(O)CC=C2C3CCC4=CC(=O)CCC4C3C(c3ccc(-c4ccoc4)cc3)CC21C (stereo not drawn) | 198 to 199

— a melting point compilation (Tetko et al.; mined from patent text by program, amines drawn as free bases though some values may be those of a salt)
